Data reported in patent US8183215B2, “Method of administering oral flora-improving agent, antibacterial agent and growth promoter” (Megmilk Snow Brand Co., Ltd., priority 2004, dated 2012).
Bridge positions count the residues as written; N and C are the ends. Square brackets hold non-standard residues; d marks the D form. Peptide text beside a SMILES is read from it. * marks the point of attachment. Ileψ(thiazoline)Cys = CC[C@H](C)[C@H](N)C1=N[C@H](C(=O)*)CS1; dOrn = NCCC[C@@H](N)C(=O)O

Assays:
Assay in all cases: Radial Diffusion Assay, antibacterial / growth promoting activity
Assay type in all cases: cell-based
[1] = test system: Streptococcus mitis GTC945; conditions: 5 μl sample in hole, zone measured after 18 hours at 37° C.
Description: (§1) The influences of gangliosides on oral bacteria were examined by Radial Diffusion Assay. That is, 3 mg of Tryptic Soy medium (Difco), 20 μl of Tween 20, and 100 mg of agarose were dissolved in 10 ml of ultrapure water and sterilized. 100 μl of solution of bacteria having an OD620 of 0.2 (5×10^7 cfu/ml) was added to the sterilized medium, and then the resultant mixture was dispensed in Petri dishes and allowed to solidify at room temperature. Each solidified medium was provided with a hole of about 2.5 mm in diameter and 5 μl of each solution of ganglioside GM3 or ganglioside GD3 derived from milk for the evaluation of the antibacterial effect was added to the hole and incubated at 37° C. for 1 hour. Further, a sterilized medium obtained by dissolving 0.6 g of Tryptic Soy medium and 100 mg of agarose in 10 ml of ultrapure water was superposed on the solidified medium and left to solidify at room temperature, and then stationary cultured in an incubator at 37° C. After 18 hours, the diameter of a clear zone formed around the hole formed in the medium was measured. A length obtained by subtracting the diameter (mm) of the hole formed in the medium from the diameter (mm) of a clear zone formed by inhibition of the growth of the bacterium was defined as antibacterial activity. On the other hand, when colonies of the bacterium were formed around the hole in the medium and an opaque zone was observed, it was assumed that growth promotion took place, and a length obtained by subtracting the diameter (mm) of the hole formed in the medium from the diameter (mm) of an opaque zone was defined as growth promotion activity. The bacterial strains subjected to the test include Streptococcus sobrinus 6715 strain, Streptococcus anginosus ATCC33397 strain, and Staphylococcus aureus Cowan I strain as harmful oral bacteria; Streptococcus agalactiae ATCC46448 strain and Actinomyces naeslundii JCM8349 strain as habitant oral bacteria; and Streptococcus mitis GTC495 strain, Streptococcus mitis ATCC6249 strain, and Streptococcus mitis ATCC903 strain as useful oral bacteria.
(§2) Bacitracin, which is an antibacterial component separated from Bacillus subtilis, was used as a positive control and a sample showing an antibacterial activity of 2.0 mm or more was judged to be positive (having an antibacterial activity). As for the growth promoting effect, a sample having a growth promoting activity of 1.0 mm or more was judged to be positive (having a growth promoting activity).

[2] = test system: Streptococcus mitis ATCC6249 strain; conditions: 5 μl sample in hole, zone measured after 18 hours at 37° C.
Description: as §1, §2

[3] = test system: Streptococcus mitis ATCC903 strain; conditions: 5 μl sample in hole, zone measured after 18 hours at 37° C.
Description: as §1, §2

[4] = test system: Streptococcus agalactiae ATCC46448 strain; conditions: for antibacterial activity / growth promoting activity: Streptococcus agalactiae ATCC46448, 5 μl sample in hole, zone measured after 18 hours at 37° C.; for antibacterial and growth promoting activity, result in words: Streptococcus agalactiae ATCC46448 strain
Description: as §1, §2

[5] = test system: Streptococcus sobrinus 6715 strain; conditions: 5 μl sample in hole, zone measured after 18 hours at 37° C.
Description: as §1, §2

[6] = test system: Staphylococcus aureus Cowan I strain; conditions: 5 μl sample in hole, zone measured after 18 hours at 37° C.
Description: as §1, §2

[7] = test system: Streptococcus anginosus ATCC33397 strain; conditions: 5 μl sample in hole, zone measured after 18 hours at 37° C.
Description: as §1, §2

[8] = test system: Actinomyces naeslundii JCM8349 strain; conditions: for antibacterial activity / growth promoting activity: Actinomyces naeslundii JCM8349, 5 μl sample in hole, zone measured after 18 hours at 37° C.; for antibacterial and growth promoting activity, result in words: Actinomyces naeslundii JCM8349 strain
Description: as §1, §2

Compound | antibacterial activity / growth promoting activity [1] | antibacterial activity / growth promoting activity [2] | antibacterial activity / growth promoting activity [3] | antibacterial activity / growth promoting activity [4] | antibacterial activity / growth promoting activity [5] | antibacterial activity / growth promoting activity [6] | antibacterial activity / growth promoting activity [7] | antibacterial activity / growth promoting activity [8] | antibacterial and growth promoting activity, result in words [4] | antibacterial and growth promoting activity, result in words [8]
CC[C@H](C)[C@H](N)C1=N[C@H](C(=O)N[C@@H](CC(C)C)C(=O)N[C@H](CCC(=O)O)C(=O)N[C@H](C(=O)N[C@H]2CCCCNC(=O)[C@H](CC(N)=O)NC(=O)[C@@H](CC(=O)O)NC(=O)[C@H](Cc3cnc[nH]3)NC(=O)[C@@H](Cc3ccccc3)NC(=O)[C@H]([C@@H](C)CC)NC(=O)[C@@H](CCCN)NC2=O)[C@@H](C)CC)CS1 [Bacitracin, reference compound] ({Ileψ(thiazoline)Cys}-L[dE]IK[dOrn]I[dF]H[dD]N; lactam 4-C) | + (Having an antibacterial activity) | + (Having an antibacterial activity) | + (Having an antibacterial activity) | + (Having an antibacterial activity) | + (Having an antibacterial activity) | + (Having an antibacterial activity) | + (Having an antibacterial activity) | + (Having an antibacterial activity) | – | –
ganglioside GM3 | * (Having a growth promoting activity) | * (Having a growth promoting activity) | * (Having a growth promoting activity) | − (Having no antibacterial activity) | + (Having an antibacterial activity) | + (Having an antibacterial activity) | + (Having an antibacterial activity) | − (Having no antibacterial activity) | neither an antibacterial activity nor a growth promoting activity | neither an antibacterial activity nor a growth promoting activity
ganglioside GD3 | * (Having a growth promoting activity) | * (Having a growth promoting activity) | * (Having a growth promoting activity) | − (Having no antibacterial activity) | + (Having an antibacterial activity) | + (Having an antibacterial activity) | + (Having an antibacterial activity) | − (Having no antibacterial activity) | neither an antibacterial activity nor a growth promoting activity | neither an antibacterial activity nor a growth promoting activity
